Values of other authors, collected in PubChem BioAssay AID1259409 (Chemical Carcinogenesis Research Information System (CCRIS), 2018).

Test system: rodent chemically induced tumor inhibition, incidence and multiplicity
Test: CCRIS tumor inhibitor studies
Details: Route [Inhibitor]: ORAL

SMILES: CC1=C(/C=C/C(C)=C/C=C/C(C)=C/C(=O)Nc2ccc(O)cc2)C(C)(C)CCC1
- tumour outcome (control, treated, inhibition, significance) (Carcinogen: 1,2-DIMETHYLHYDRAZINE, 540-73-8, Dose [Inhibitor]: 2.0 MMOL/KG DIET DAILY STARTING 12 D AFTER CARCINOGEN TREATMENT THROUGH ABOUT 8 MO AFTER CARCINOGEN DOSE (STUDY DURATION, Species: RAT, Strain/Sex: F344/MALE, Target Tissue: Type of Lesion: COLON: ADENOCARCINOMA, Dose [Carcinogen]: 150 MG/KG BW ONCE, Promoter: NONE USED): 10/39 (26%), 5/30 (17%), 35%, not significant
- tumour outcome (control, treated, inhibition, significance) (Carcinogen: 1,2-DIMETHYLHYDRAZINE, 540-73-8, Dose [Inhibitor]: 2.0 MMOL/KG DIET DAILY STARTING 12 D AFTER CARCINOGEN TREATMENT THROUGH ABOUT 8 MO AFTER CARCINOGEN DOSE (STUDY DURATION, Species: RAT, Strain/Sex: F344/MALE, Target Tissue: Type of Lesion: COLON: ADENOMA, Dose [Carcinogen]: 150 MG/KG BW ONCE, Promoter: NONE USED): 23/39 (59%), 7/30 (23%), 61%, p<0.05
- tumour outcome (control, treated, inhibition, significance) (Carcinogen: 4-(METHYLNITROSAMINO)-1-(3-PYRIDYL)-1-BUTANONE [64091-50-5], Dose [Inhibitor]: 2 MMOL/KG IN DIET FOR 17 WK BEGINNING 1 WK PRIOR TO FIRST CARCINOGEN DOSE (STUDY DURATION: 17 WK), Species: MOUSE, Strain/Sex: A/J/FEMALE, Target Tissue: Type of Lesion: LUNG: ADENOMA, Dose [Carcinogen]: 10 UMOL ONCE 1 WK POST FIRST INHIBITOR DOSE (STUDY DURATION: 17 WK), Promoter: NONE): 100%, 100%, 0%, not significant
- tumour outcome (control, treated, inhibition, significance) (Carcinogen: 4-(METHYLNITROSAMINO)-1-(3-PYRIDYL)-1-BUTANONE [64091-50-5], Dose [Inhibitor]: 2 MMOL/KG IN DIET FOR 53 WK BEGINNING 1 WK PRIOR TO FIRST CARCINOGEN DOSE (STUDY DURATION: 53 WK), Species: MOUSE, Strain/Sex: A/J/FEMALE, Target Tissue: Type of Lesion: LUNG: ADENOMA OR ADENOCARCINOMA, Dose [Carcinogen]: 10 UMOL ONCE 1 WK POST FIRST INHIBITOR DOSE (STUDY DURATION: 53 WK), Promoter: NONE): 100%, 100%, 0%, not significant
- tumour outcome (control, treated, inhibition, significance) (Carcinogen: 4-(METHYLNITROSAMINO)-1-(3-PYRIDYL)-1-BUTANONE [64091-50-5], Dose [Inhibitor]: 4 MMOL/KG IN DIET FOR 17 WK BEGINNING 1 WK PRIOR TO FIRST CARCINOGEN DOSE (STUDY DURATION: 17 WK), Species: MOUSE, Strain/Sex: A/J/FEMALE, Target Tissue: Type of Lesion: LUNG: ADENOMA, Dose [Carcinogen]: 10 UMOL ONCE 1 WK POST FIRST INHIBITOR DOSE (STUDY DURATION: 17 WK), Promoter: NONE): 100%, 100%, 0%, not significant
- tumour outcome (control, treated, inhibition, significance) (Carcinogen: 4-(METHYLNITROSAMINO)-1-(3-PYRIDYL)-1-BUTANONE [64091-50-5], Dose [Inhibitor]: 4 MMOL/KG IN DIET FOR 53 WK BEGINNING 1 WK PRIOR TO FIRST CARCINOGEN DOSE (STUDY DURATION: 53 WK), Species: MOUSE, Strain/Sex: A/J/FEMALE, Target Tissue: Type of Lesion: LUNG: ADENOMA OR ADENOCARCINOMA, Dose [Carcinogen]: 10 UMOL ONCE 1 WK POST FIRST INHIBITOR DOSE (STUDY DURATION: 53 WK), Promoter: NONE): 100%, 93%, 7%, not significant
- tumour outcome (control, treated, inhibition, significance) (Carcinogen: 7,12-DIMETHYLBENZ[A]ANTHRACENE, 57-97-6, Dose [Inhibitor]: 0, 1 MMOL/KG IN DIET FOR THE DURATION OF STUDY BEGINNING 1 WK PRIOR TO CARCINOGEN DOSE (STUDY DURATION: 105 WK), Species: RAT, Strain/Sex: SPRAGUE-DAWLEY/FEMALE, Target Tissue: Type of Lesion: MAMMARY GLAND: TUMOR, Dose [Carcinogen]: 15 MG IN 1 ML SESAME OIL ONCE, Promoter: NONE USED): 88%, 73%, 17%, not significant
- tumour outcome (control, treated, inhibition, significance) (Carcinogen: 7,12-DIMETHYLBENZ[A]ANTHRACENE, 57-97-6, Dose [Inhibitor]: 0, 2 MMOL/KG IN DIET FOR THE DURATION OF STUDY BEGINNING 1 WK PRIOR TO CARCINOGEN DOSE (STUDY DURATION: 105 WK), Species: RAT, Strain/Sex: SPRAGUE-DAWLEY/FEMALE, Target Tissue: Type of Lesion: MAMMARY GLAND: TUMOR, Dose [Carcinogen]: 15 MG IN 1 ML SESAME OIL ONCE, Promoter: NONE USED): 88%, 33%, 63%, not significant
- tumour outcome (control, treated, inhibition, significance) (Carcinogen: 7,12-DIMETHYLBENZ[A]ANTHRACENE, 57-97-6, Dose [Inhibitor]: 0, 2 MMOL/KG OF DIET FOR 15.5 WK BEGINNING 10 D PRIOR TO CARCINOGEN DOSE (STUDY DURATION: 17 WK), Species: RAT, Strain/Sex: SPRAGUE-DAWLEY/FEMALE, Target Tissue: Type of Lesion: MAMMARY GLAND: TUMOR, Dose [Carcinogen]: 15 MG IN 1 ML OF SESAME OIL ONCE AT 50 D OF AGE, Promoter: NONE USED): 92%, 58%, 37%, not calculated
- tumour outcome (control, treated, inhibition, significance) (Carcinogen: 7,12-DIMETHYLBENZ[A]ANTHRACENE, 57-97-6, Dose [Inhibitor]: 0, 2 MMOL/KG OF DIET FOR 18.5 WK BEGINNING 10 D PRIOR TO CARCINOGEN DOSE (STUDY DURATION: 18.5 WK), Species: RAT, Strain/Sex: SPRAGUE-DAWLEY/FEMALE, Target Tissue: Type of Lesion: MAMMARY GLAND: TUMOR, Dose [Carcinogen]: 15 MG IN 1 ML OF SESAME OIL ONCE AT 50 D OF AGE, Promoter: NONE USED): 83%, 33%, 60%, not calculated
- tumour outcome (control, treated, inhibition, significance) (Carcinogen: 7,12-DIMETHYLBENZ[A]ANTHRACENE, 57-97-6, Dose [Inhibitor]: 0, 2 MMOL/KG OF DIET FOR 20 D BEGINNING 10 D PRIOR TO CARCINOGEN DOSE (STUDY DURATION: 18.5 WK), Species: RAT, Strain/Sex: SPRAGUE-DAWLEY/FEMALE, Target Tissue: Type of Lesion: MAMMARY GLAND: TUMOR, Dose [Carcinogen]: 15 MG IN 1 ML OF SESAME OIL ONCE AT 50 D OF AGE, Promoter: NONE USED): 100%, 67%, 33%, not calculated
- tumour outcome (control, treated, inhibition, significance) (Carcinogen: 7,12-DIMETHYLBENZ[A]ANTHRACENE, 57-97-6, Dose [Inhibitor]: 0.75 MMOL/KG OF DIET IN 25 ML OF THE VEHICLE (ETHANOL/TRICAPRYLIN 1:4 (VOL/VOL) PLUS 6% (WT/VOL) ALPHA-TOCOPHEROL) BEGIN, Species: RAT, Strain/Sex: SPRAGUE-DAWLEY/FEMALE, Target Tissue: Type of Lesion: MAMMARY GLAND: TUMOR, Dose [Carcinogen]: 75 MG/KG BW IN 1.0 ML SESAME OIL ONCE, Promoter: NONE USED): 70%, 65%, 7%, not significant
